# Key:
# [1] = test system: surinam grass; test: Test D surinam grass; format: in vivo, Brachiaria decumbens; conditions: Preemergence, 0 to 100 scale
# In short: (§1)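 Weed seeds planted in sandy loam; species kept apart in individual pots or compartments. Preemergence tests: treatment to soil surface within one day. Greenhouse growth, then visual injury scoring at 14–21 days (0–100).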
# [2] = test system: itchgrass; test: Test D itchgrass; format: in vivo, Rottboellia exaltata; conditions: Preemergence, 0 to 100 scale
# In short: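 Scoring used a 0–100 visual injury scale, with 0 meaning no effect and 100 complete control, assessed 14–21 days after application alongside untreated pots. Preemergence treatments went onto sandy loam surfaces of separately potted seeds within a day of sowing.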
# [3] = test system: Green foxtail; test: Test D green foxtail; format: in vivo; conditions: Preemergence, 0 to 100 scale
# In short: as §1
# [4] = test system: common pursiane; test: Test D common purslane; format: in vivo, Portulaca oleracea; conditions: Preemergence, 0 to 100 scale
# In short: as §1
# [5] = test system: common ragweed; test: Test D common ragweed; format: in vivo, Ambrosia elatior; conditions: Preemergence, 0 to 100 scale
# In short: as §1
# [6] = test system: guineagrass; test: Test D guineagrass; format: in vivo, Panicum maximum; conditions: Preemergence, 0 to 100 scale
# In short: as §1
# [7] = test system: common groundsel; test: Test D common groundsel; format: in vivo, Senecio vulgaris; conditions: Preemergence, 0 to 100 scale
# In short: as §1
# [8] = test system: dallisgrass; test: Test D dallisgrass; format: in vivo, Paspalum dilatatum; conditions: Preemergence, 0 to 100 scale
# In short: as §1
# [9] = test system: Alexandergrass; test: Test D Alexandergrass; format: in vivo, Brachiaria plantaginea; conditions: Preemergence, 0 to 100 scale
# In short: as §1
# [10] = test system: purple nutsedge; test: Test D purple nutsedge; format: in vivo, Cyperus rotundus; conditions: Preemergence, 0 to 100 scale
# In short: as §1
# [11] = test system: pitted morningglory; test: Test D pitted morningglory; format: in vivo, Ipomoea lacunosa; conditions: Preemergence, 0 to 100 scale
# In short: as §1
# [12] = test system: large crabgrass; test: Test D large crabgrass; format: in vivo, Digitaria sanguinalis; conditions: Preemergence, 0 to 100 scale
# In short: as §1
# [13] = test system: bermuda-grass; test: Test D bermudagrass; format: in vivo, Cynodon dactylon; conditions: Preemergence, 0 to 100 scale
# In short: as §1
# [14] = test system: Green foxtail; test: Test D green foxtail; format: in vivo
# In short: as §1
# [15] = test system: Spanishneedles; test: Test D Spanishneedles; format: in vivo, Bidens bipinnata; conditions: Preemergence, 0 to 100 scale
# In short: as §1
# [16] = test system: goosegrass; test: Test D goosegrass; format: in vivo, Eleusine indica; conditions: Postemergence, 0 to 100 scale
# [17] = Rate 16 g/ha, 0 no injury, 100 complete control
# [18] = Rate 32 g/ha, 0 no injury, 100 complete control
# [19] = Rate 64 g/ha, 0 no injury, 100 complete control
# [20] = Rate 125 g/ha, 0 no injury, 100 complete control
# [21] = Rate 64 g/ha, Preemergence; 0 to 100 scale, 0 no injury, 100 complete control
# [22] = Rate 125 g/ha, Preemergence; 0 to 100 scale, 0 no injury, 100 complete control
structure (smiles),measurement,setting,value
CC(C)N(C(=O)n1oc(=O)n(N(C)C)c1=O)c1ccc(F)cc1 [Compound 170],"Plant response rating, Surinam grass",[1]; [17],0
same,"Plant response rating, Surinam grass",[1]; [18],0
same,Surinam grass plant response rating,[1]; [19],30
same,Surinam grass plant response rating,[1]; [20],75
same,"Plant response rating, Surinam grass",[1]; Rate 250 g/ha,100
same,"Plant response rating, Surinam grass",[1]; Rate 500 g/ha,100
same,"Plant response rating, Itchgrass",[2]; [17],0
same,"Plant response rating, Itchgrass",[2]; [18],0
same,"Plant response rating, Itchgrass",[2]; [19],0
same,"Plant response rating, Itchgrass",[2]; [20],30
same,"Plant response rating, Itchgrass",[2]; Rate 250 g/ha,45
same,"Plant response rating, Itchgrass",[2]; Rate 500 g/ha,50
same,"Plant response rating, Green foxtail",[3]; Rate 250 g/ha,100
same,"Plant response rating, Green foxtail",[3]; Rate 500 g/ha,100
same,"Plant response rating, C. purslane",[4]; [17],0
same,"Plant response rating, C. purslane",[4]; [18],0
same,"Plant response rating, C. purslane",[4]; [19],0
same,"Plant response rating, C. purslane",[4]; [20],0
same,"Plant response rating, C. purslane",[4]; Rate 250 g/ha,0
same,"Plant response rating, C. purslane",[4]; Rate 500 g/ha,10
same,"Plant response rating, C. ragweed",[5]; [17],0
same,"Plant response rating, C. ragweed",[5]; [18],0
same,"Plant response rating, C. ragweed",[5]; [19],0
same,"Plant response rating, C. ragweed",[5]; [20],0
same,"Plant response rating, C. ragweed",[5]; Rate 250 g/ha,40
same,"Plant response rating, C. ragweed",[5]; Rate 500 g/ha,45
same,"Plant response rating, Guineagrass",[6]; [17],0
same,"Plant response rating, Guineagrass",[6]; [18],85
same,"Plant response rating, Guineagrass",[6]; [19],98
same,"Plant response rating, Guineagrass",[6]; [20],100
same,"Plant response rating, Guineagrass",[6]; Rate 250 g/ha,100
same,"Plant response rating, Guineagrass",[6]; Rate 500 g/ha,100
same,"Plant response rating, Com. groundsel",[7]; [17],0
same,"Plant response rating, Com. groundsel",[7]; [18],0
same,"Plant response rating, Com. groundsel",[7]; [19],0
same,"Plant response rating, Com. groundsel",[7]; [20],45
same,"Plant response rating, Com. groundsel",[7]; Rate 250 g/ha,45
same,"Plant response rating, Com. groundsel",[7]; Rate 500 g/ha,100
same,"Plant response rating, Dallisgrass",[8]; [17],0
same,"Plant response rating, Dallisgrass",[8]; [18],0
same,"Plant response rating, Dallisgrass",[8]; [19],85
same,"Plant response rating, Dallisgrass",[8]; [20],85
same,"Plant response rating, Dallisgrass",[8]; Rate 250 g/ha,100
same,"Plant response rating, Dallisgrass",[8]; Rate 500 g/ha,100
same,"Plant response rating, Alexandergrass",[9]; [17],20
same,"Plant response rating, Alexandergrass",[9]; [18],20
same,"Plant response rating, Alexandergrass",[9]; [19],30
same,"Plant response rating, Alexandergrass",[9]; [20],85
same,"Plant response rating, Alexandergrass",[9]; Rate 250 g/ha,98
same,"Plant response rating, Alexandergrass",[9]; Rate 500 g/ha,100
same,"Plant response rating, Purple nutsedge",[10]; [17],0
same,"Plant response rating, Purple nutsedge",[10]; [18],0
same,Purple nutsedge plant response rating,[10]; [19],0
same,Purple nutsedge plant response rating,[10]; [20],0
same,"Plant response rating, Purple nutsedge",[10]; Rate 250 g/ha,65
same,"Plant response rating, Purple nutsedge",[10]; Rate 500 g/ha,65
same,"Plant response rating, P. morninglory",[11]; [17],20
same,"Plant response rating, P. morninglory",[11]; [18],20
same,"Plant response rating, P. morninglory",[11]; [19],20
same,"Plant response rating, P. morninglory",[11]; [20],40
same,"Plant response rating, P. morninglory",[11]; Rate 250 g/ha,65
same,"Plant response rating, P. morninglory",[11]; Rate 500 g/ha,85
same,"Plant response rating, Large crabgrass",[12]; [17],30
same,"Plant response rating, Large crabgrass",[12]; [18],85
same,"Plant response rating, Large crabgrass",[12]; [19],100
same,"Plant response rating, Large crabgrass",[12]; [20],100
same,"Plant response rating, Large crabgrass",[12]; Rate 250 g/ha,100
same,"Plant response rating, Large crabgrass",[12]; Rate 500 g/ha,100
same,"Plant response rating, Bermudagrass",[13]; [17],80
same,"Plant response rating, Bermudagrass",[13]; [18],90
same,"Plant response rating, Bermudagrass",[13]; [19],100
same,"Plant response rating, Bermudagrass",[13]; [20],100
same,"Plant response rating, Bermudagrass",[13]; Rate 250 g/ha,100
same,"Plant response rating, Bermudagrass",[13]; Rate 500 g/ha,100
same,"Plant response rating, Green foxtail","[14]; Preemergence; Rate 16 g/ha; 0 to 100 scale, 0 no injury, 100 complete control",65
same,"Plant response rating, Green foxtail","[14]; Preemergence; Rate 32 g/ha; 0 to 100 scale, 0 no injury, 100 complete control",75
same,"Plant response rating, Green foxtail","[14]; Rate 16 g/ha; Preemergence; 0 to 100 scale, 0 no injury, 100 complete control",65
same,"Plant response rating, Green foxtail","[14]; Rate 32 g/ha; Preemergence; 0 to 100 scale, 0 no injury, 100 complete control",100
same,Green foxtail plant response rating,[14]; [21],100
same,"Plant response rating, Green foxtail",[14]; [21],100
same,Green foxtail plant response rating,[14]; [22],100
same,"Plant response rating, Green foxtail",[14]; [22],100
same,"Plant response rating, Green foxtail",[14]; Rate 250 g/ha; Preemergence; 0 to 100 scale,100
same,"Plant response rating, Green foxtail","[14]; Rate 500 g/ha, Preemergence; 0 to 100 scale",100
same,"Plant response rating, Spanishneedles",[15]; [17],0
same,"Plant response rating, Spanishneedles",[15]; [18],0
same,Spanishneedles plant response rating,[15]; [19],0
same,Spanishneedles plant response rating,[15]; [20],0
same,"Plant response rating, Spanishneedles",[15]; Rate 250 g/ha,40
same,"Plant response rating, Spanishneedles",[15]; Rate 500 g/ha,85
CC(C)N(C(=O)n1oc(=O)n(C2CCCCCC2)c1=O)c1ccc(F)cc1F [Compound 342],"Plant response rating, Goosegrass",[16]; [17],20
same,"Plant response rating, Goosegrass",[16]; [18],30
same,"Plant response rating, Goosegrass",[16]; [19],90
same,"Plant response rating, Goosegrass",[16]; [20],100
same,"Plant response rating, Goosegrass",[16]; Rate 250 g/ha,100

# From US6737383B1, “Herbicidal oxadiazolidines” (priority 1999, dated 2004)
